Source: PMC3535334 (Nature Communications, 2012)

Target: Nano-lantern (ATP1)
Settings: 20 nM protein, 50 mM HEPES pH 7.2, coelenterazine-h 1-10 μM

Kd: 300 µM
SMILES: Nc1ncnc2c1ncn2[C@@H]1O[C@H](COP(=O)(O)OP(=O)(O)OP(=O)(O)O)[C@@H](O)[C@H]1O [ATP]
